This data set in a line: Peptide stability in HEK293T cell lysate. The class given is in vitro ADME. The following applies: human, HEK293T lysate 1 mg/ml in PBS, 1 mM peptide, 37 °C, HPLC/LCMS peak area normalized to ethylparaben standard, read-out: peptide still intact after 24 hours in cell lysate. From the text: Stapled peptides have been reported to be able to pass cell membranes with high efficiency, but their cell permeability is dependent on the peptide sequence and the position of the staple.[41] To evaluate whether the α3-helix derived peptide is cell permeable, we used azidolysine derivatized variants of P-6 and P-6S (P-6-Az and P-6S-Az) and used them in the NanoClick assay.[60] In this assay cells are transfected to express a NanoLuc–HaloTag fusion protein followed by treatment with a dibenzoazacyclooctyne reagent modified with a chloroalkane (DIBAC–CA) that covalently modifies the HaloTag protein. When an azide modified NanoBRET acceptor (NB618-Az) is added, it will undergo strain promoted azide–alkyne cycloaddition (SPAAC) with the DIBAC–CA placing the acceptor in the proximity of the NanoLuc protein leading to an observable BRET signal. […] The SPAAC reaction only happens if the peptide is able to reach the cytosol and the assay therefore provides a read-out of cell-permeability. […]
Peptide stability was measured in HEK293T lysates. […]
The samples were chilled on ice for 15 min and insoluble material was removed by centrifugation (16873 x g, 4 °C, 10 min). The supernatant was analysed by LCMS with a gradient of H2O (0.1% TFA) and ACN (0.1% TFA) from 5 to 95 % over 20 min. […]

Two compounds from paper PMC10411625, “Rationally designed stapled peptides allosterically inhibit PTBP1–RNA-binding” (Chemical Science, 2023) can be followed below.

Structures are written as SMILES.

Regarding `CC(=O)N[C@@H](CC(N)=O)C(=O)N[C@@H](CCC(N)=O)C(=O)N[C@@]1(C)CCCCCCCC[C@@](C)(C(=O)N[C@@H](C)C(=O)N[C@@H](CC(C)C)C(=O)N[C@@H](CCC(N)=O)C(=O)N[C@@H](C)C(=O)N[C@H](C(=O)N[C@@H](CC(N)=O)C(N)=O)C(C)C)NC(=O)[C@H](CCC(N)=O)NC(=O)[C@H](C)NC(=O)[C@H](CCCNC(=N)N)NC1=O` [Peptide P-2], the remaining at 24 h, 1 mM came to 12%.

For the compound `CC(=O)N[C@@H](CC(N)=O)C(=O)N[C@@H](CCC(N)=O)C(=O)N[C@@]1(C)CCCC=CCCCC2(CCCC=CCCC[C@](C)(C(=O)N[C@H](C(=O)N[C@@H](CC(N)=O)C(N)=O)C(C)C)NC(=O)[C@H](CCC(N)=O)NC(=O)[C@H](CC(C)C)NC(=O)[C@H](C)NC2=O)NC(=O)[C@H](CCC(N)=O)NC(=O)[C@H](C)NC(=O)[C@H](CCCNC(=N)N)NC1=O` (some centres unmarked) [Peptide P-6], the remaining at 24 h, 1 mM was 43%.
